| SMILES | logP |
| --- | --- |
| COc1cc(S(C)=O)ccc1-c1nc2nccnc2[nH]1 (configuration not stated) | 0.66 |
| O=Cc1ccccc1Cl | 2.33 |
| Nc1cn[nH]c1 | -1.09 |
| CCc1cccc(S(I)=C(N(C)C)N(C)C)c1 (configuration not stated) | 0.34 |
| CNC(=O)Oc1ccc(C(C)(C)C)cc1 | 3.06 |
| OC(CF)CF | -0.36 |
| Clc1cncc(Cl)c1 | 2.56 |
| O=S(=O)(c1ccccc1)c1ccc2ncccc2c1 | 2.57 |
| CCCn1cnc([N+](=O)[O-])n1 | 0.3 |
| CC(C)(C)c1cccc(C(C)(C)C)c1O | 4.92 |
| NNc1ccccc1 | 1.25 |
| CON(C)C(=O)Nc1cccc([N+](=O)[O-])c1 | 1.64 |
| CC(C)COC(=O)n1cnc(CC(NC(=O)C2CCC(=O)N2)C(=O)N2CCCC2C(N)=O)c1 (configuration not stated) | -0.44 |
| CN(C)C(=O)Nc1cccc(C(F)(F)F)c1 | 2.42 |
| CC(=O)c1cccc(C(C)=O)c1 | 1.43 |
| O=C(OCCc1ccccc1)c1ccccc1 | 4.01 |
| c1ccc(C2CNCCO2)cc1 (configuration not stated) | 1.11 |
| CC(C)Cl | 1.9 |
| C=CCC1(C2C=CCC2)C(=O)NC(=O)NC1=O (configuration not stated) | 1.51 |
| CCC(=O)C1(c2cccc(OC(=O)OCC(C)C)c2)CCN(C)CC1 | 2.38 |
| COc1cc(C(O)CO)ccc1O (configuration not stated) | -0.58 |

| SMILES | logP |
| --- | --- |
| CCc1cccc(OCC(=O)O)c1 | 2.25 |
| Clc1ccc(Cl)c(Cl)c1Cl | 4.6 |
| O=C(Nc1ccccc1)C(F)(F)F | 2.21 |
| CC[N+](=O)[O-] | 0.18 |
| C=CC(=O)OC | 0.8 |
| Cc1c2ccccc2c(C)c2c1ccc1ccccc12 | 5.8 |
| CCCCCOC(=O)c1ccc(N)cc1 | 3.48 |
| CCCCCCNC(=O)c1[nH]nc(C)c1[N+](=O)[O-] | 2.46 |
| Nc1cc(C(F)(F)F)ccc1Cl | 3.06 |
| Cc1ncc([N+](=O)[O-])n1CCS(=O)(=O)C(C)C | 0.13 |
| CC1=C(O)C(=O)c2ccccc2C1=O | 1.2 |
| O=C(c1ccccc1)c1ccncc1 | 1.98 |
| CC(Cl)[N+](=O)[O-] (configuration not stated) | 1.1 |
| COc1ccccc1NC(C)=O | 0.67 |
| O=C(O)CCc1c[nH]c2ccccc12 | 1.75 |
| NS(=O)(=O)NCCc1ccccc1 | 0.81 |
| COC(=O)CNC(=O)c1ccc(N)cc1 | -0.23 |
| c1ccc(-c2nc3ccccc3[nH]2)cc1 | 3.24 |
| OB(O)c1ccccc1 | 1.58 |
| OCCCCCc1ccccn1 | 1.28 |
| O=Cc1ccoc1 | 0.51 |

| SMILES | logP |
| --- | --- |
| O=C1CC(=O)c2ccccc21 | 0.61 |
| CCCOC(=O)C(C(=O)OCCC)=C1SC=CS1 | 3.93 |
| O=C(CN1CCCCC1)Nc1ccc(I)cc1 | 3.9 |
| COc1cccc(C(=O)O)c1 | 2.02 |
| Cn1nnnc1SCC1=C(C(=O)O)N2C(=O)C(NC(=O)CSCC#N)C2SC1 (configuration not stated) | -0.62 |
| CN(C)C(=O)Nc1ccc(C(=O)c2ccccc2)cc1 | 2.59 |
| CNC(=O)Oc1ccc(Cl)c(C)c1 | 2.57 |
| O=C(O)Cc1ccc([N+](=O)[O-])cc1 | 1.39 |
| CCCCBr | 2.75 |
| S=C=S | 1.94 |
| CNC(=S)NC | -0.24 |
| O=S(=O)(c1ccccc1)c1cccc2cccnc12 | 2.33 |
| C=C(C)Cl | 2 |
| Nc1ccc(I)cc1 | 2.34 |
| CCCCCCOc1ccc(NC(=O)OCCN2CCCCC2)cc1 | 5.41 |
| CCOP(=S)(OCC)SCSc1ccc(Cl)cc1 | 5.33 |
| CC(=O)C(C)C | 0.84 |
| c1ccc2occc2c1 | 2.67 |
| CC(=O)NC(=O)NC(C)=O | -0.68 |
| Clc1ccc(Cl)c(-c2cc(Cl)ccc2Cl)c1 | 6.09 |
